Measured values: patent US20240246942A1, “KINASE INHIBITORS FOR THE TREATMENT OF NEURODEGENERATIVE DISEASES” (priority 2020, published 2024)

How the values were obtained:
Assay in all cases: biochemical
[1] = molecular target: T1, panel of 374 wild-type kinases (Homo sapiens, UniProt Q00537); settings: read-out: % Enzyme Activity (relative to DMSO controls), CDK17/cyclin Y (PCTK2)
T1 construct: purchased Reaction Biology Corporation

[2] = molecular target: T2, panel of 374 wild-type kinases (Homo sapiens, UniProt Q99683); settings: read-out: % Enzyme Activity (relative to DMSO controls), ASK1/MAP3K5
T2 construct: purchased Reaction Biology Corporation
T2 sequence (Q99683 1-1374): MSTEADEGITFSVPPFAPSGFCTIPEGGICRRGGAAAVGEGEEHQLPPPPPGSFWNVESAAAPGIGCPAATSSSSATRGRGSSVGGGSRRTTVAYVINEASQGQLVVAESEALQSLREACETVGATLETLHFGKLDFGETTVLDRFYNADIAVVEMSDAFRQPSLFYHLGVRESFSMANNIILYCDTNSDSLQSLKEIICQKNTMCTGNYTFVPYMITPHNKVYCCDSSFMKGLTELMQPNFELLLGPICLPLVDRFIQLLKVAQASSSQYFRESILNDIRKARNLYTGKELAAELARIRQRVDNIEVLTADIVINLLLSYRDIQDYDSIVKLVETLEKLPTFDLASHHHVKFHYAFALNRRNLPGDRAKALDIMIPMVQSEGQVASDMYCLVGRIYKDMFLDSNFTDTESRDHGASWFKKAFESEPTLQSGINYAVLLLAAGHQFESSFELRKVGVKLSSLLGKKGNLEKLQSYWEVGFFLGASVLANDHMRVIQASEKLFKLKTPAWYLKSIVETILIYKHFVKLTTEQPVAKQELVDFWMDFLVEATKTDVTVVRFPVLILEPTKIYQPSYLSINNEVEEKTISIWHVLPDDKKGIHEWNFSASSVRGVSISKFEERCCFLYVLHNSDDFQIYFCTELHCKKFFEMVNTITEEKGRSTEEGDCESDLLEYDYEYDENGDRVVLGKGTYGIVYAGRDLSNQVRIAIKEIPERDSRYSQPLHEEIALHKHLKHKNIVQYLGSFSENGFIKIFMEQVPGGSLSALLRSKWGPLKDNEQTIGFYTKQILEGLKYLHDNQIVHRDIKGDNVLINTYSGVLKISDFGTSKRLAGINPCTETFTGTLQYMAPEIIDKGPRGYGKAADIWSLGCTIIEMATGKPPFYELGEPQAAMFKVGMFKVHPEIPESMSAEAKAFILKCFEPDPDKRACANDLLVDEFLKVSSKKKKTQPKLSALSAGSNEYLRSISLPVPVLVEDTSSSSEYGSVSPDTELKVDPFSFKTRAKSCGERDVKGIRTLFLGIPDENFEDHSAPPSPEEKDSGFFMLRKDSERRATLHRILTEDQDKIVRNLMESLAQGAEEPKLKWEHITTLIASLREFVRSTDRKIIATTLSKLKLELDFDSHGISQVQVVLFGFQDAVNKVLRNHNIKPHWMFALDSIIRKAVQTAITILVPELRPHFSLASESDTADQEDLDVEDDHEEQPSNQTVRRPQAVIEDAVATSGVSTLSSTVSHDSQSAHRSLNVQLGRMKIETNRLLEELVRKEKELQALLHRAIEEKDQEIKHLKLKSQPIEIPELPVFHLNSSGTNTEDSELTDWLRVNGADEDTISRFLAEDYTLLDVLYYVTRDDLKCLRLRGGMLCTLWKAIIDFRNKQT

[3] = molecular target: T3, panel of 374 wild-type kinases (Homo sapiens, UniProt Q9UKI8); settings: read-out: % Enzyme Activity (relative to DMSO controls), kinase TLK1
T3 construct: purchased Reaction Biology Corporation
T3 sequence (Q9UKI8 1-766): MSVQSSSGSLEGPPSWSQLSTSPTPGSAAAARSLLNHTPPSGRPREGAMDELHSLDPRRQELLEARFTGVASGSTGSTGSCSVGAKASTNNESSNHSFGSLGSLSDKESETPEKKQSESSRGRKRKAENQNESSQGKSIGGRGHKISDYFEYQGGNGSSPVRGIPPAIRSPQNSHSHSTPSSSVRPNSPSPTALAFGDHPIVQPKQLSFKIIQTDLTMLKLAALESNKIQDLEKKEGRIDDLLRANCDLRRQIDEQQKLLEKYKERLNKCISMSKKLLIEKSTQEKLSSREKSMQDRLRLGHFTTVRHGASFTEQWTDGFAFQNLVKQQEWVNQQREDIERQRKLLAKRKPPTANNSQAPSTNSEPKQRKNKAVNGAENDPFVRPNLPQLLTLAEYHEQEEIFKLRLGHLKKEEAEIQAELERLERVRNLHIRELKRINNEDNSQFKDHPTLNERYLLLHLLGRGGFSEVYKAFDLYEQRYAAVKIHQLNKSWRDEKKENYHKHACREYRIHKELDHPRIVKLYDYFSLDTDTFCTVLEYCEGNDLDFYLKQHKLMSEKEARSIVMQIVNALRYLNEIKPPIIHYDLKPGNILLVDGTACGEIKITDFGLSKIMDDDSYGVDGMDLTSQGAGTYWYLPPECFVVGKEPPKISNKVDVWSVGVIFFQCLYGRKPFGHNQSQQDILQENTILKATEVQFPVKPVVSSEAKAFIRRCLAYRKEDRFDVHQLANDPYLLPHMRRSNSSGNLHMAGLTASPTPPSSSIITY

T1 sequence (Q00537 whole entry): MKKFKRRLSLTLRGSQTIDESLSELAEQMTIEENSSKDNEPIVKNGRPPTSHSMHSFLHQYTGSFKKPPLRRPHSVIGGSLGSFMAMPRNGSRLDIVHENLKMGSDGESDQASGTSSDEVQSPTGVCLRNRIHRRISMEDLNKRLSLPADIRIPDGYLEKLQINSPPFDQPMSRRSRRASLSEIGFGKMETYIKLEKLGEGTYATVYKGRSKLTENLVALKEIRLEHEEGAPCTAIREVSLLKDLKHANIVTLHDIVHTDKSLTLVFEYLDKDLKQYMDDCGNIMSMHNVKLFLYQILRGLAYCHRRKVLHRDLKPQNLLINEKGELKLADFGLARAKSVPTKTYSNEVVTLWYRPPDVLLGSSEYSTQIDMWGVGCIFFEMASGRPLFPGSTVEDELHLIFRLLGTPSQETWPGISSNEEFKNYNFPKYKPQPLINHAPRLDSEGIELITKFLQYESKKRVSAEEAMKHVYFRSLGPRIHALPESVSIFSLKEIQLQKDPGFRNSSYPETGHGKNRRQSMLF

Row | Structure (SMILES) | remaining activity at 5 µM [1] | remaining activity at 5 µM [2] | remaining activity at 5 µM [3] | remaining activity at 10 µM ([1]; 10 uM) | remaining activity at 10 µM ([2]; 10 uM) | remaining activity at 10 µM ([3]; 10 uM)
1 | O=C(Nc1cnn(-c2csc(C(=O)NC3COC3)c2)c1)Nc1ccccc1Cl [Compound 17, 4-(4-(3-(2-chlorophenyl)ureido)-1H-pyrazol-1-yl)-N-(oxetan-3-yl)thiophene-2-carboxamide] | 106% | 91.2% | 105% |  |  | 
2 | Cc1sc(C(=O)NC2COC2)cc1-n1cc(NC(=O)Nc2c(F)cccc2Cl)cn1 [Compound 27, 4-(4-(3-(2-chloro-6-fluorophenyl)ureido)-1H-pyrazol-1-yl)-5-methyl-N-(oxetan-3-yl)thiophene-2-carboxamide] |  |  |  | 102% | 94% | 105%
3 | O=C(Nc1cnn(-c2csc(C(=O)NC3COC3)c2)c1)Nc1c(F)cccc1Cl [Compound 25, 4-(4-(3-(2-chloro-6-fluorophenyl)ureido)-1H-pyrazol-1-yl)-N-(oxetan-3-yl)thiophene-2-carboxamide] | 96% | 91.1% | 53.4% |  |  | 
